Data taken from patent publication US6358885B1, “Substituted phenylheterocyclic herbicides” (Mississippi State University, priority 1992, dated 2002).

How the values were obtained:
Test in all cases: Test G preemergence/postemergence greenhouse plant response rating 0 to 100
[1] = tested on: guineagrass; assay type: in vivo, Panicum maximum; settings: 0 to 100 scale
Source text: (§1) Seeds, rhizomes, or plant parts of alfalfa (Medicago ativa), annual bluegrass (Poa annua), bermudagrass (Cynodon dactylon), broadleaf signalgrass (Brachiaria plantaginea), common purslane (Portulaca oleracea), common ragweed (Ambrosia elatior), […] (Paspalum dilatatum), goosegrass (Eleusine indica), guineagrass (Panicum maximum), […] exaltata), johnsongrass (Sorghum halepense), large crabgrass (Digitaria sanguinalis), peanut (Arachis hypoagaea), pitted morningglory (Ipomoea lacunosa), purple nutsedge (Cyperus rotundus), sandbur (Cenchrus echinatus), smooth crabgrass (Digitaria ischaemum) and yellow nutsedge (Cyperus esculentus) were planted into greenhouse pots containing greenhouse planting medium. Each pot contained only one plant species. The test compound was dissolved in a non-phytotoxic solvent and applied preemergence and/or postemergence to the plants. Preemergence applications were made within one day of planting the seeds or plant parts. Postemergence applications were applied when the plants were in the two to four leaf stage (three to twenty cm). Test chemicals were dissolved in a non-phytotoxic solvent and applied preemergence and postemergence to the plants. Untreated control plants and treated plants were placed in the greenhouse and visually evaluated for injury at 13 to 21 days after herbicide application. […] A dash (-) response indicates no test result.

[2] = tested on: yellow nutsedge; assay type: in vivo, Cyperus esculentus; settings: Rate 125 g/ha, 0 to 100 scale
Source text: as §1

[3] = tested on: common ragweed; assay type: in vivo, Ambrosia elatior; settings: 0 to 100 scale
Source text: as §1

[4] = tested on: common purslane; assay type: in vivo, Portulaca oleracea; settings: 0 to 100 scale
Source text: as §1

[5] = tested on: goosegrass; assay type: in vivo, Eleusine indica; settings: 0 to 100 scale
Source text: as §1

[6] = tested on: dallisgrass; assay type: in vivo, Paspalum dilatatum; settings: 0 to 100 scale
Source text: as §1

[7] = tested on: smooth crabgrass; assay type: in vivo, Digitaria ischaemum; settings: 0 to 100 scale
Source text: as §1

[8] = tested on: peanut; assay type: in vivo, Arachis hypoagaea; settings: 0 to 100 scale
Source text: as §1

[9] = tested on: johnsongrass; assay type: in vivo, Sorghum halepense; settings: 0 to 100 scale
Source text: as §1

[10] = tested on: purple nutsedge; assay type: in vivo, Cyperus rotundus; settings: Rate 125 g/ha, 0 to 100 scale
Source text: as §1

[11] = tested on: itchgrass; assay type: in vivo, Rottboellia exaltata; settings: 0 to 100 scale
Source text: as §1

[12] = tested on: pitted morningglory; assay type: in vivo, Ipomoea lacunosa; settings: 0 to 100 scale
Source text: as §1

[13] = tested on: sandbur; assay type: in vivo, Cenchrus echinatus; settings: 0 to 100 scale
Source text: as §1

[14] = tested on: alfalfa; assay type: in vivo, Medicago ativa; settings: 0 to 100 scale
Source text: as §1

[15] = tested on: broadleaf signalgrass; assay type: in vivo, Brachiaria plantaginea; settings: 0 to 100 scale
Source text: as §1

[16] = tested on: annual bluegrass; assay type: in vivo, Poa annua; settings: 0 to 100 scale
Source text: as §1

For `CCS(=O)(=O)Oc1cc(-c2nn3c(c2Cl)CCCC3)c(F)cc1Cl` [Compound 25], the “Plant response rating, Guineagrass” value ([1]; POSTEMERGENCE, Rate 125 g/ha) was 0, the “Plant response rating, Guineagrass” value ([1]; POSTEMERGENCE, Rate 250 g/ha) was 0 and the “Plant response rating, Guineagrass” value ([1]; PREEMERGENCE, Rate 125 g/ha) was 0. For the same compound, the “Plant response rating, Guineagrass” value ([1]; PREEMERGENCE, Rate 250 g/ha) was 0, the “Plant response rating, Yellow Nutsedge” value ([2]; POSTEMERGENCE) was 0 and the “Plant response rating, Yellow Nutsedge” value ([2]; PREEMERGENCE) was 0. The “Plant response rating, Cmn Ragweed” value ([3]; POSTEMERGENCE, Rate 125 g/ha) was 50, the “Plant response rating, Cmn Ragweed” value ([3]; POSTEMERGENCE, Rate 250 g/ha) was 0 and the “Plant response rating, Cmn Ragweed” value ([3]; PREEMERGENCE, Rate 125 g/ha) was 0. For the same compound, the “Plant response rating, Cmn Ragweed” value ([3]; PREEMERGENCE, Rate 250 g/ha) was 0, the “Plant response rating, Cmn Purslane” value ([4]; POSTEMERGENCE, Rate 125 g/ha) was 100 and the “Plant response rating, Cmn Purslane” value ([4]; POSTEMERGENCE, Rate 250 g/ha) was 60. For the same compound, the “Plant response rating, Cmn Purslane” value ([4]; PREEMERGENCE, Rate 125 g/ha) was 0, the “Plant response rating, Cmn Purslane” value ([4]; PREEMERGENCE, Rate 250 g/ha) was 0 and the “Plant response rating, Goosegrass” value ([5]; POSTEMERGENCE, Rate 125 g/ha) was 0. The “Plant response rating, Goosegrass” value ([5]; POSTEMERGENCE, Rate 250 g/ha) was 0, the “Plant response rating, Goosegrass” value ([5]; PREEMERGENCE, Rate 125 g/ha) was 0 and the “Plant response rating, Goosegrass” value ([5]; PREEMERGENCE, Rate 250 g/ha) was 0. The “Plant response rating, Dallisgrass” value ([6]; POSTEMERGENCE, Rate 125 g/ha) was 0, the “Plant response rating, Dallisgrass” value ([6]; POSTEMERGENCE, Rate 250 g/ha) was 0 and the “Plant response rating, Dallisgrass” value ([6]; PREEMERGENCE, Rate 125 g/ha) was 0. The “Plant response rating, Dallisgrass” value ([6]; PREEMERGENCE, Rate 250 g/ha) was 0, the “Plant response rating, Smooth Crabgras” value ([7]; POSTEMERGENCE, Rate 125 g/ha) was 0 and the “Plant response rating, Smooth Crabgras” value ([7]; POSTEMERGENCE, Rate 250 g/ha) was 0. The “Plant response rating, Smooth Crabgras” value ([7]; PREEMERGENCE, Rate 125 g/ha) was 0, the “Plant response rating, Smooth Crabgras” value ([7]; PREEMERGENCE, Rate 250 g/ha) was 0 and the “Plant response rating, Peanuts” value ([8]; POSTEMERGENCE, Rate 125 g/ha) was 0. For the same compound, the “Plant response rating, Peanuts” value ([8]; POSTEMERGENCE, Rate 250 g/ha) was 0, the “Plant response rating, Peanuts” value ([8]; PREEMERGENCE, Rate 125 g/ha) was 0 and the “Plant response rating, Peanuts” value ([8]; PREEMERGENCE, Rate 250 g/ha) was 0. For the same compound, the “Plant response rating, Johnsongrass” value ([9]; POSTEMERGENCE, Rate 125 g/ha) was 0, the “Plant response rating, Johnsongrass” value ([9]; POSTEMERGENCE, Rate 250 g/ha) was 0 and the “Plant response rating, Johnsongrass” value ([9]; PREEMERGENCE, Rate 125 g/ha) was 0. For the same compound, the “Plant response rating, Johnsongrass” value ([9]; PREEMERGENCE, Rate 250 g/ha) was 0, the “Plant response rating, Purple Nutsedge” value ([10]; POSTEMERGENCE) was 0 and the “Plant response rating, Purple Nutsedge” value ([10]; PREEMERGENCE) was 0. The “Plant response rating, Itchgrass” value ([11]; POSTEMERGENCE, Rate 125 g/ha) was 0, the “Plant response rating, Itchgrass” value ([11]; POSTEMERGENCE, Rate 250 g/ha) was 0 and the “Plant response rating, Itchgrass” value ([11]; PREEMERGENCE, Rate 125 g/ha) was 0. The “Plant response rating, Itchgrass” value ([11]; PREEMERGENCE, Rate 250 g/ha) was 0, the “Plant response rating, Pit Morninglory” value ([12]; POSTEMERGENCE, Rate 125 g/ha) was 0 and the “Plant response rating, Pit Morninglory” value ([12]; POSTEMERGENCE, Rate 250 g/ha) was 0. For the same compound, the “Plant response rating, Pit Morninglory” value ([12]; PREEMERGENCE, Rate 125 g/ha) was 0, the “Plant response rating, Pit Morninglory” value ([12]; PREEMERGENCE, Rate 250 g/ha) was 0 and the “Plant response rating, S. Sandbur” value ([13]; POSTEMERGENCE, Rate 125 g/ha) was 0. The “Plant response rating, S. Sandbur” value ([13]; POSTEMERGENCE, Rate 250 g/ha) was 0, the “Plant response rating, S. Sandbur” value ([13]; PREEMERGENCE, Rate 125 g/ha) was 0 and the “Plant response rating, S. Sandbur” value ([13]; PREEMERGENCE, Rate 250 g/ha) was 0. For the same compound, the “Plant response rating, Alfalfa Var.” value ([14]; POSTEMERGENCE, Rate 125 g/ha) was 0, the “Plant response rating, Alfalfa Var.” value ([14]; POSTEMERGENCE, Rate 250 g/ha) was 0 and the “Plant response rating, Alfalfa Var.” value ([14]; PREEMERGENCE, Rate 125 g/ha) was 0. For the same compound, the “Plant response rating, Alfalfa Var.” value ([14]; PREEMERGENCE, Rate 250 g/ha) was 0, the “Plant response rating, Brdlf Sgnlgrass” value ([15]; POSTEMERGENCE, Rate 125 g/ha) was 0 and the “Plant response rating, Brdlf Sgnlgrass” value ([15]; POSTEMERGENCE, Rate 250 g/ha) was 0. For the same compound, the “Plant response rating, Brdlf Sgnlgrass” value ([15]; PREEMERGENCE, Rate 125 g/ha) was 0, the “Plant response rating, Brdlf Sgnlgrass” value ([15]; PREEMERGENCE, Rate 250 g/ha) was 0 and the “Plant response rating, Ann Bluegrass” value ([16]; POSTEMERGENCE, Rate 125 g/ha) was 0. For the same compound, the “Plant response rating, Ann Bluegrass” value ([16]; POSTEMERGENCE, Rate 250 g/ha) was 0, the “Plant response rating, Ann Bluegrass” value ([16]; PREEMERGENCE, Rate 125 g/ha) was 0 and the “Plant response rating, Ann Bluegrass” value ([16]; PREEMERGENCE, Rate 250 g/ha) was 0.
